Where “and” joins values, the source holds several entries; their conditions need not be identical. Identical values can stand only once.
Tests used:
SfurOBP1 = SfurOBP1 (Sogatella furcifera, UniProt V5T8N5); assay: biochemical; format: binding; settings: for Fluorescence competitive binding assay, fluorescence intensity: OBP1, three replicate columns
In short: (§1)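 Fluorescence competitive binding with 1-NPN as reporter: 2.0 µM protein and 2.0 µM 1-NPN in 50 mM Tris-HCl pH 7.4, odorant added at 2–20 µM final. Excitation 337 nm, emission 390–490 nm read 2 min after addition, triplicates. Ki = IC50/(1 + [1-NPN]/K1-NPN).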

SfurOBP11 = SfurOBP11 (Sogatella furcifera, UniProt V5T6E3); assay: biochemical; format: binding
SfurOBP11, sequence (V5T6E3 entry or part of it): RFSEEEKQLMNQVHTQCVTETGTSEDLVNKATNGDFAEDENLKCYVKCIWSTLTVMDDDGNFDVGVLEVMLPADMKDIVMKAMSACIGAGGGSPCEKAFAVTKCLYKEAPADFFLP
In short: as §1

SfurOBP2 = SfurOBP2 (Sogatella furcifera, UniProt V5T759); assay: biochemical; format: binding
SfurOBP2, sequence (V5T759 entry or part of it): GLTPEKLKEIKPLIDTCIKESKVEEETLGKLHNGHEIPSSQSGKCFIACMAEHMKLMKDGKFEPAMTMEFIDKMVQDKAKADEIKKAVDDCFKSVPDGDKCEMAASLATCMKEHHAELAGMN
In short: as §1

SfurOBP3 = SfurOBP3 (Sogatella furcifera, UniProt V5T818); assay: biochemical; format: binding; settings: for Fluorescence competitive binding assay, fluorescence intensity: OBP3, three replicate columns
SfurOBP3, sequence (V5T818 entry or part of it): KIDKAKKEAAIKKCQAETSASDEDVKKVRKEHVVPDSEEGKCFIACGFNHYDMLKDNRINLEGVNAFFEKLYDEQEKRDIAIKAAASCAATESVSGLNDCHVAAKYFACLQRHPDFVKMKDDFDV
In short: as §1

S. furcifera adults = assay: Y-tube olfactometer behavioral trials; format: in vivo, Sogatella furcifera; settings: odorant 50 µL/L vs hexane; adults
In short: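 Single S. furcifera adults (2 days post-emergence, starved 0.5 h) chose between odorant (100 µL of 50 µL/L on filter paper) and hexane control in a glass Y-tube, charcoal-filtered humidified air 300 mL/min per arm, 25 ± 1 °C, 50% RH. Choice scored if insect passed half an arm and stayed >1 min within 10 min; 45 insects per compound, chi-squared test.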

SfurOBP1, sequence (V5T8N5 entry or part of it): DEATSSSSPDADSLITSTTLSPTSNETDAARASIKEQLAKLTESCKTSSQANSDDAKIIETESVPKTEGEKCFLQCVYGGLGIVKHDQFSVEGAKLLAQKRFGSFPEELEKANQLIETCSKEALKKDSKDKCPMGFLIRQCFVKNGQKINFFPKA

CC/C=C\CCO [(Z)-3-hexenol]
IC50 (SfurOBP1): > 20 µM
Fluorescence competitive binding assay, fluorescence intensity (SfurOBP1; ligand concentration 2 (μM)): 6275 and 5762 and 6097
Fluorescence competitive binding assay, fluorescence intensity (SfurOBP1; ligand concentration 4 (μM)): 7853 and 8652 and 8403
Fluorescence competitive binding assay, fluorescence intensity (SfurOBP1; ligand concentration 6 (μM)): 6992 and 6382 and 6355
Fluorescence competitive binding assay, fluorescence intensity (SfurOBP1; ligand concentration 8 (μM)): 6419 and 7196 and 6808
Fluorescence competitive binding assay, fluorescence intensity (SfurOBP1; ligand concentration 10 (μM)): 6561 and 6490 and 6439
Fluorescence competitive binding assay, fluorescence intensity (SfurOBP1; ligand concentration 12 (μM)): 6242 and 6220 and 5811
Fluorescence competitive binding assay, fluorescence intensity (SfurOBP1; ligand concentration 14 (μM)): 5437 and 6035 and 6831
Fluorescence competitive binding assay, fluorescence intensity (SfurOBP1; ligand concentration 16 (μM)): 6974 and 6042 and 5510
Fluorescence competitive binding assay, fluorescence intensity (SfurOBP1; ligand concentration 18 (μM)): 6021 and 6159 and 6506
Fluorescence competitive binding assay, fluorescence intensity (SfurOBP1; ligand concentration 20 (μM)): 6648 and 5435 and 5963
IC50 (SfurOBP11): 19.7 µM
Fluorescence intensity, fluorescence competitive binding assay, OBP11 (SfurOBP11; ligand concentration 2, replicate 1): 23102
Fluorescence intensity, fluorescence competitive binding assay, OBP11 (SfurOBP11; ligand concentration 2, replicate 2): 23122
Fluorescence intensity, fluorescence competitive binding assay, OBP11 (SfurOBP11; ligand concentration 2, replicate 3): 23081
Fluorescence intensity, fluorescence competitive binding assay, OBP11 (SfurOBP11; ligand concentration 4, replicate 1): 21959
Fluorescence intensity, fluorescence competitive binding assay, OBP11 (SfurOBP11; ligand concentration 4, replicate 2): 22135
Fluorescence intensity, fluorescence competitive binding assay, OBP11 (SfurOBP11; ligand concentration 4, replicate 3): 21783
Fluorescence intensity, fluorescence competitive binding assay, OBP11 (SfurOBP11; ligand concentration 6, replicate 1): 21447
Fluorescence intensity, fluorescence competitive binding assay, OBP11 (SfurOBP11; ligand concentration 6, replicate 2): 20794
Fluorescence intensity, fluorescence competitive binding assay, OBP11 (SfurOBP11; ligand concentration 6, replicate 3): 21118
Fluorescence intensity, fluorescence competitive binding assay, OBP11 (SfurOBP11; ligand concentration 8, replicate 1): 18781
Fluorescence intensity, fluorescence competitive binding assay, OBP11 (SfurOBP11; ligand concentration 8, replicate 2): 21016
Fluorescence intensity, fluorescence competitive binding assay, OBP11 (SfurOBP11; ligand concentration 8, replicate 3): 21554
Fluorescence intensity, fluorescence competitive binding assay, OBP11 (SfurOBP11; ligand concentration 10, replicate 1): 18621
Fluorescence intensity, fluorescence competitive binding assay, OBP11 (SfurOBP11; ligand concentration 10, replicate 2): 21154
Fluorescence intensity, fluorescence competitive binding assay, OBP11 (SfurOBP11; ligand concentration 10, replicate 3): 19973
Fluorescence intensity, fluorescence competitive binding assay, OBP11 (SfurOBP11; ligand concentration 12, replicate 1): 17455
Fluorescence intensity, fluorescence competitive binding assay, OBP11 (SfurOBP11; ligand concentration 12, replicate 2): 20348
Fluorescence intensity, fluorescence competitive binding assay, OBP11 (SfurOBP11; ligand concentration 12, replicate 3): 19925
Fluorescence intensity, fluorescence competitive binding assay, OBP11 (SfurOBP11; ligand concentration 14, replicate 1): 17235
Fluorescence intensity, fluorescence competitive binding assay, OBP11 (SfurOBP11; ligand concentration 14, replicate 2): 18458
Fluorescence intensity, fluorescence competitive binding assay, OBP11 (SfurOBP11; ligand concentration 14, replicate 3): 18680
Fluorescence intensity, fluorescence competitive binding assay, OBP11 (SfurOBP11; ligand concentration 16, replicate 1): 16257
Fluorescence intensity, fluorescence competitive binding assay, OBP11 (SfurOBP11; ligand concentration 16, replicate 2): 15961
Fluorescence intensity, fluorescence competitive binding assay, OBP11 (SfurOBP11; ligand concentration 16, replicate 3): 16778
Fluorescence intensity, fluorescence competitive binding assay, OBP11 (SfurOBP11; ligand concentration 18, replicate 1): 15893
Fluorescence intensity, fluorescence competitive binding assay, OBP11 (SfurOBP11; ligand concentration 18, replicate 2): 16090
Fluorescence intensity, fluorescence competitive binding assay, OBP11 (SfurOBP11; ligand concentration 18, replicate 3): 15799
Fluorescence intensity, fluorescence competitive binding assay, OBP11 (SfurOBP11; ligand concentration 20, replicate 1): 15616
Fluorescence intensity, fluorescence competitive binding assay, OBP11 (SfurOBP11; ligand concentration 20, replicate 2): 15707
Fluorescence intensity, fluorescence competitive binding assay, OBP11 (SfurOBP11; ligand concentration 20, replicate 3): 14975
IC50 (SfurOBP2): > 20 µM
Fluorescence competitive binding assay, OBP2 (raw fluorescence reading) (SfurOBP2; ligand concentration 2 (unit not given), replicate column 1 of 3): 19770
Fluorescence competitive binding assay, OBP2 (raw fluorescence reading) (SfurOBP2; ligand concentration 2 (unit not given), replicate column 2 of 3): 19248
Fluorescence competitive binding assay, OBP2 (raw fluorescence reading) (SfurOBP2; ligand concentration 2 (unit not given), replicate column 3 of 3): 18506
Fluorescence competitive binding assay, OBP2 (raw fluorescence reading) (SfurOBP2; ligand concentration 4 (unit not given), replicate column 1 of 3): 19551
Fluorescence competitive binding assay, OBP2 (raw fluorescence reading) (SfurOBP2; ligand concentration 4 (unit not given), replicate column 2 of 3): 19781
Fluorescence competitive binding assay, OBP2 (raw fluorescence reading) (SfurOBP2; ligand concentration 4 (unit not given), replicate column 3 of 3): 18404
Fluorescence competitive binding assay, OBP2 (raw fluorescence reading) (SfurOBP2; ligand concentration 6 (unit not given), replicate column 1 of 3): 19561
Fluorescence competitive binding assay, OBP2 (raw fluorescence reading) (SfurOBP2; ligand concentration 6 (unit not given), replicate column 2 of 3): 18769
Fluorescence competitive binding assay, OBP2 (raw fluorescence reading) (SfurOBP2; ligand concentration 6 (unit not given), replicate column 3 of 3): 17857
Fluorescence competitive binding assay, OBP2 (raw fluorescence reading) (SfurOBP2; ligand concentration 8 (unit not given), replicate column 1 of 3): 18896
Fluorescence competitive binding assay, OBP2 (raw fluorescence reading) (SfurOBP2; ligand concentration 8 (unit not given), replicate column 2 of 3): 18816
Fluorescence competitive binding assay, OBP2 (raw fluorescence reading) (SfurOBP2; ligand concentration 8 (unit not given), replicate column 3 of 3): 16878
Fluorescence competitive binding assay, OBP2 (raw fluorescence reading) (SfurOBP2; ligand concentration 10 (unit not given), replicate column 1 of 3): 17416
Fluorescence competitive binding assay, OBP2 (raw fluorescence reading) (SfurOBP2; ligand concentration 10 (unit not given), replicate column 2 of 3): 17439
Fluorescence competitive binding assay, OBP2 (raw fluorescence reading) (SfurOBP2; ligand concentration 10 (unit not given), replicate column 3 of 3): 16747
Fluorescence competitive binding assay, OBP2 (raw fluorescence reading) (SfurOBP2; ligand concentration 12 (unit not given), replicate column 1 of 3): 16106
Fluorescence competitive binding assay, OBP2 (raw fluorescence reading) (SfurOBP2; ligand concentration 12 (unit not given), replicate column 2 of 3): 16534
Fluorescence competitive binding assay, OBP2 (raw fluorescence reading) (SfurOBP2; ligand concentration 12 (unit not given), replicate column 3 of 3): 16305
Fluorescence competitive binding assay, OBP2 (raw fluorescence reading) (SfurOBP2; ligand concentration 14 (unit not given), replicate column 1 of 3): 14820
Fluorescence competitive binding assay, OBP2 (raw fluorescence reading) (SfurOBP2; ligand concentration 14 (unit not given), replicate column 2 of 3): 14819
Fluorescence competitive binding assay, OBP2 (raw fluorescence reading) (SfurOBP2; ligand concentration 14 (unit not given), replicate column 3 of 3): 14820
Fluorescence competitive binding assay, OBP2 (raw fluorescence reading) (SfurOBP2; ligand concentration 16 (unit not given), replicate column 1 of 3): 13168
Fluorescence competitive binding assay, OBP2 (raw fluorescence reading) (SfurOBP2; ligand concentration 16 (unit not given), replicate column 2 of 3): 12294
Fluorescence competitive binding assay, OBP2 (raw fluorescence reading) (SfurOBP2; ligand concentration 16 (unit not given), replicate column 3 of 3): 13106
Fluorescence competitive binding assay, OBP2 (raw fluorescence reading) (SfurOBP2; ligand concentration 18 (unit not given), replicate column 1 of 3): 12788
Fluorescence competitive binding assay, OBP2 (raw fluorescence reading) (SfurOBP2; ligand concentration 18 (unit not given), replicate column 2 of 3): 12466
Fluorescence competitive binding assay, OBP2 (raw fluorescence reading) (SfurOBP2; ligand concentration 18 (unit not given), replicate column 3 of 3): 12554
Fluorescence competitive binding assay, OBP2 (raw fluorescence reading) (SfurOBP2; ligand concentration 20 (unit not given), replicate column 1 of 3): 12993
Fluorescence competitive binding assay, OBP2 (raw fluorescence reading) (SfurOBP2; ligand concentration 20 (unit not given), replicate column 2 of 3): 12815
Fluorescence competitive binding assay, OBP2 (raw fluorescence reading) (SfurOBP2; ligand concentration 20 (unit not given), replicate column 3 of 3): 12410
IC50 (SfurOBP3): > 20 µM
Fluorescence competitive binding assay, fluorescence intensity (SfurOBP3; ligand concentration 2): 48626 and 49734 and 49512
Fluorescence competitive binding assay, fluorescence intensity (SfurOBP3; ligand concentration 4): 45649 and 45958 and 42870
Fluorescence competitive binding assay, fluorescence intensity (SfurOBP3; ligand concentration 6): 41915 and 48260 and 45013
Fluorescence competitive binding assay, fluorescence intensity (SfurOBP3; ligand concentration 8): 45442 and 45656 and 45548
Fluorescence competitive binding assay, fluorescence intensity (SfurOBP3; ligand concentration 10): 40904 and 43831 and 42892
Fluorescence competitive binding assay, fluorescence intensity (SfurOBP3; ligand concentration 12): 41218 and 40601 and 40113
Fluorescence competitive binding assay, fluorescence intensity (SfurOBP3; ligand concentration 14): 34957 and 35609 and 37985
Fluorescence competitive binding assay, fluorescence intensity (SfurOBP3; ligand concentration 16): 33728 and 34170 and 34618
Fluorescence competitive binding assay, fluorescence intensity (SfurOBP3; ligand concentration 18): 37828 and 32491 and 33581
Fluorescence competitive binding assay, fluorescence intensity (SfurOBP3; ligand concentration 20): 33910 and 32414 and 29949
number of insects choosing hexane arm (S. furcifera adults): 13
number of insects choosing volatilies arm (S. furcifera adults): 13
number of insects failed (no choice) (S. furcifera adults): 14

Source: paper PMC6409085, “Three odorant-binding proteins are involved in the behavioral response of Sogatella furcifera to rice plant volatiles” (PeerJ, 2019)
